Data: patent US11413278B2, “Compounds and methods for promoting stress resistance” (priority 2015, dated 2022)
Where two headings read alike, the source gives them in different places.

Tests used:
[1] = system: human dermal fibroblast (HDF) primary cells; test: H2O2-resistance in primary human dermal fibroblasts; assay type: cell-based; conditions: for fold induction at 10 µM: Homo sapiens; for Assay 6: H2O2-resistant, at 10 uM, human dermal fibroblast (HDF) primary cells: YES/NO
[2] = system: FOXO3; test: FOXO3 siRNA knockdown: dependency for H2O2-resistance; assay type: cell-based, human
Method: For qPCR analysis, WI-38 cells were treated with small molecules (at 10 μM) (biological quadruplicates) for 24 hrs and processed for RNA isolation and reverse transcription (RT) with the Cells-to-Ct Kit (Life Technologies), following manufacturer's instructions. RT products were diluted with H2O and used for qPCR analysis on an ABI 7300 system (Life Technologies) (technical triplicates). Relative expression levels of target genes were normalized to the genes B2M, PPIA and GAPDH. To knock down the expression of FOXO3 or NRF2, WI-38 cells were transfected, using the RNAiMAX reagents (Life Technologies), with siRNA oligos (at 10 nM final concentration, 10 ml culture medium) for FOXO3 (Life Technologies) or NRF2 (Integrated DNA Technologies) on 10-cm petri dishes for 36 hrs, and then detached and aliquoted onto 96-well (for qPCR analysis) or 384-well plates (for H2O2-stress treatment). ˜24 hrs later, small molecules were introduced and incubated with cells for 24 hrs. Cells were then either processed with the Cells-to-Ct Kit to prepare RT products for qPCR analysis or subjected to H2O2 (700 μM) for 3 hrs and assayed for viability. The knockdown efficiency of FOXO3 or NRF2 was checked at 36 hrs post-transfection and at the end as well. […]
Applicants used siRNA to knock down FOXO3 expression by ˜70% in an attempt to identify whether the activation of these genes depends on activity of FOXO3 and/or NRF2. […] We used siRNA to knock down FOXO3 expression by ˜60% to 70% (FIG. 3; see data in Table 6). […] (Given the caveat that FOXO3 was not fully knocked down, partial dependency was scored when the H2O2-resistance capacity was reduced by at least 25% but less than 50% upon siRNA knockdown). At least for Gr-7A and Gr-7C, which are structurally related, the observed FOXO3-dependency for H2O2-resistance is consistent with their strong effects to induce FOXO3 target genes (Tables 1a-1f, Table 6, & Table 15), including SOD2 and GADD45A.

[3] = system: NRF2; test: in vitro; assay type: cell-based, human; conditions: for NRF2-dependency for H2O2-resistance, at 10 uM - with H2O2, 2nd experiment: experiment 2 (2nd); for NRF2-dependency for H2O2-resistance, 2nd experiment / NRF2-dependency for H2O2-resistance, 1st experiment: with H2O2, NRF2 knockdown in WI-38 cells, YES = resistance reduced by at least 50%, partial = 25% to 50%; for NRF2-dependency for H2O2-resistance, at 10 uM - with H2O2, 1st experiment: experiment 1 (1st); for Assay 17: NRF2-dependency for H2O2-resistance: YES/NO; for NRF2-dependency of H2O2-resistance (NRF2 siRNA knockdown): at least 2 of 3 independent experiments
[4] = system: WI-38 cells; test: CdCl2 (cadmium) resistance assay; assay type: cell-based, human; conditions: for fold induction at 10 µM: Homo sapiens, 12 h, normalized ATP measurement; for Assay 4: H2O2- & Cd-resistant / Assay 2: Cadmium-resistant: YES/NO; for Assay 2: Cadmium-resistant: * indicates partial
How it was run: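 Resistance to CdCl2 or MMS stress (12 h exposure) was scored in WI-38 fibroblasts pretreated with compound at 0.25–20 μM final, five doses, technical triplicates. MMS plates had compound added 24 h before MMS, after a shift to serum-free DMEM+2% BSA. Significance came from a global variance t-test over two independent runs.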

[5] = Experiment 1, HDF cells, read-out: Experiment 1, HDF cells (under H2O2 stress treatment), at 10 uM (fold change)
[6] = Experiment 2, HDF cells, read-out: Experiment 2, HDF cells (under H2O2 stress treatment), at 10 uM (fold change)
[7] = score in summary of 38 core set hits
[8] = 10 uM, with H2O2, FOXO3 knockdown in WI-38 cells, YES = resistance reduced by at least 50%, partial = 25% to 50%
[9] = Exp. 1, WI-38 cells, read-out: Exp. 1, under Cd2Cl2 stress treatment, at 10 uM (fold change)
[10] = Exp. 2, WI-38 cells, read-out: Exp. 2, under Cd2Cl2 stress treatment, at 10 uM (fold change)

Compound	fold induction at 10 µM [1, 5]	fold induction at 10 µM [1, 6]	Assay 6: H2O2-resistant, at 10 uM, human dermal fibroblast (HDF) primary cells [1]	I = FOXO3-dependency for H2O2-resistance ([2]; score)	I = FOXO3-dependency for H2O2-resistance ([2]; summary score)	NRF2-dependency for H2O2-resistance, at 10 uM - with H2O2, 2nd experiment ([3]; 10 uM)	NRF2-dependency for H2O2-resistance, 2nd experiment ([3]; 10 uM)	J = NRF2-dependency for H2O2-resistance ([3]; score)	J = NRF2-dependency for H2O2-resistance ([3]; summary score)	A = Cadmium resistant [4, 7]	A = Cadmium resistant ([4]; summary score)	C = H2O2- & Cd-resistant ([4]; summary score)	NRF2-dependency for H2O2-resistance, at 10 uM - with H2O2, 1st experiment ([3]; 10 uM)	NRF2-dependency for H2O2-resistance, 1st experiment ([3]; 10 uM)	Assay 17: NRF2-dependency for H2O2-resistance ([3]; 10 uM)	NRF2-dependency of H2O2-resistance (NRF2 siRNA knockdown) [3]	fold induction at 10 µM [4, 9]	fold induction at 10 µM [4, 10]	Assay 4: H2O2- & Cd-resistant [4]	Assay 2: Cadmium-resistant [4]	also measured
N=C1S/C(=C\c2cn(-c3ccccc3)nc2-c2cccs2)C(=O)N1c1nccs1 [Gr-6C]	0.01	50.6	YES	0	0	2nd, partial.	partial.	0	0	0	0	0									
O=C(NCc1cccnc1)/C(=C\c1cccc(Oc2ccccc2)c1)S(=O)(=O)c1ccccc1 [Gr-7A]	1.2	4.11	YES	1	1	2nd, YES.	YES.	1	1	0	1	1	1st, YES;	YES;	YES	significantly attenuate	0.07	0.14	YES	YES	FOXO3-dependency for H2O2-resistance, at 10 uM - with H2O2, 1st experiment ([2]; 10 uM, experiment 1 (1st), with H2O2): 1st, partial;; FOXO3-dependency for H2O2-resistance, at 10 uM - with H2O2, 2nd experiment ([2]; 10 uM, experiment 2 (2nd), with H2O2): 2nd, YES.; FOXO3-dependency for H2O2-resistance, at 10 uM (experiment 3) - with & without H2O2 ([2]; 10 uM, experiment 3, with & without H2O2): YES; FOXO3-dependency for H2O2-resistance (experiment 3) ([2]; 10 uM, with & without H2O2, FOXO3 knockdown in WI-38 cells, YES = resistance reduced by at least 50%, partial = 25% to 50%): YES; FOXO3-dependency for H2O2-resistance, 1st experiment [2, 8]: partial;; FOXO3-dependency for H2O2-resistance, 2nd experiment [2, 8]: YES.; Assay 16: FOXO3-dependency for H2O2-resistance ([2]; 10 uM, YES/NO): YES; Requirement of FOXO3 to promote H2O2-resistance ([2]; FOXO3 siRNA, at least 2 of 3 independent experiments): required FOXO3; Survival of NRF2 siRNA-transfected cells in the absence of H2O2 [3]: could reduce the survival; viability of non-stressed cells, reduced by ([3]; human, 24 h, 10 uM): by 84%)
O=C(NCc1cccnc1)/C(=C\c1ccc(Br)cc1)S(=O)(=O)c1ccccc1 [Gr-7B]	3.71	3.35	YES	0	0	2nd, partial.	partial.	1	1	0	1	1	1st, partial;	partial;	YES	significantly attenuate	0.12	0.26	YES	YES	
